Laboratory results: ChEMBL document CHEMBL1151229, “Isolation and structure of gustastatin from the Brazilian nut tree Gustavia hexapetala” (2004)
Values after ≈ are worked out from the molar mass of the structure shown.

Legend:
Format in all cases: functional
KM-20L2 = assay: Cytotoxicity against human KM20L2 cells
MCF7 = assay: Cytotoxicity against human MCF7 cells
DU-145 = assay: Cytotoxicity against human DU145 cells
NCI-H460 = assay: Cytotoxicity against human NCI-H460 cells
SF-268 = assay: Cytotoxicity against human SF268 cells
P388 = assay: Cytotoxicity against mouse P388 cells
BXPC-3 = assay: Cytotoxicity against human BxPC3 cells

Row | Structure (SMILES) | GI50 (KM-20L2) [µg/mL] | GI50 (MCF7) [µg/mL] | GI50 (DU-145) [µg/mL] | GI50 (NCI-H460) [µg/mL] | GI50 (SF-268) [µg/mL] | GI50 (P388) [µg/mL] | GI50 (BXPC-3) [µg/mL]
1 | CCCCCC(=O)Cc1cc(OC)cc(O)c1C(=O)Oc1cc(CC(=O)CCCCC)c(C(=O)OC)c(OC)c1 [GUSTASTATIN] | > 10 | 6.4 (≈ 11.5 µM) | 5.2 (≈ 9.34 µM) | 5.1 (≈ 9.16 µM) | 7.9 (≈ 14.2 µM) | > 10 | > 10
2 | CC1(C)C=Cc2cc3ccc(=O)oc3cc2O1 [XANTHYLETIN] | 6.3 (≈ 27.6 µM) | 5.9 (≈ 25.8 µM) | 2.9 (≈ 12.7 µM) | 9 (≈ 39.4 µM) | 11.2 (≈ 49.1 µM) | > 10 | 5.5 (≈ 24.1 µM)
3 | C[C@H]1[C@@H](O)[C@@H](C)[C@@]2(O[C@@H]1C)[C@@H](C)[C@H]1OC(=O)[C@]2(C)C(=O)[C@@H]1C [PORTENTOL] | > 10 | > 10 | 1.3 (≈ 4.19 µM) | 4.7 (≈ 15.1 µM) | 4.7 (≈ 15.1 µM) | > 10 | 7 (≈ 22.6 µM)
4 | C=C(C)[C@@H]1CC[C@]2(C(=O)O)CC[C@]3(C)[C@H](CC[C@@H]4[C@@]5(C)CC[C@H](O)C(C)(C)[C@@H]5CC[C@]43C)[C@@H]12 [BETULINIC ACID] | 3.4 (≈ 7.44 µM) | 1.1 (≈ 2.41 µM) | 5 (≈ 10.9 µM) | 4.7 (≈ 10.3 µM) | 0.86 (≈ 1.88 µM) | > 10 | 0.85 (≈ 1.86 µM)
5 | COc1cc(C)c2c(=O)c3c(O)cc(OC)cc3oc2c1 [LICHEXANTHONE] | 2 (≈ 6.99 µM) | 4.1 (≈ 14.3 µM) | 3.7 (≈ 12.9 µM) | 7.1 (≈ 24.8 µM) | 3 (≈ 10.5 µM) | > 10 | 2.5 (≈ 8.73 µM)
